Test results from patent publication US20250122218A1, “MODULATORS OF CYSTIC FIBROSIS TRANSMEMBRANE CONDUCTANCE REGULATOR” (Vertex Pharmaceuticals Incorporated, priority 2022, published 2025).

Molecular target: T1, CFTR in F508del/MF-HBE cells (Homo sapiens, UniProt P13569, DEL508-508)
T1 construct: human bronchial epithelial (HBE) cells derived from CF subjects heterozygous for F508del and a minimal function CFTR mutation; endogenous in cells; host or cells: primary human bronchial epithelial cells from CF subjects (F508del/MF-HBE)
T1 sequence (P13569 with tags, fused parts or gaps DEL508-508): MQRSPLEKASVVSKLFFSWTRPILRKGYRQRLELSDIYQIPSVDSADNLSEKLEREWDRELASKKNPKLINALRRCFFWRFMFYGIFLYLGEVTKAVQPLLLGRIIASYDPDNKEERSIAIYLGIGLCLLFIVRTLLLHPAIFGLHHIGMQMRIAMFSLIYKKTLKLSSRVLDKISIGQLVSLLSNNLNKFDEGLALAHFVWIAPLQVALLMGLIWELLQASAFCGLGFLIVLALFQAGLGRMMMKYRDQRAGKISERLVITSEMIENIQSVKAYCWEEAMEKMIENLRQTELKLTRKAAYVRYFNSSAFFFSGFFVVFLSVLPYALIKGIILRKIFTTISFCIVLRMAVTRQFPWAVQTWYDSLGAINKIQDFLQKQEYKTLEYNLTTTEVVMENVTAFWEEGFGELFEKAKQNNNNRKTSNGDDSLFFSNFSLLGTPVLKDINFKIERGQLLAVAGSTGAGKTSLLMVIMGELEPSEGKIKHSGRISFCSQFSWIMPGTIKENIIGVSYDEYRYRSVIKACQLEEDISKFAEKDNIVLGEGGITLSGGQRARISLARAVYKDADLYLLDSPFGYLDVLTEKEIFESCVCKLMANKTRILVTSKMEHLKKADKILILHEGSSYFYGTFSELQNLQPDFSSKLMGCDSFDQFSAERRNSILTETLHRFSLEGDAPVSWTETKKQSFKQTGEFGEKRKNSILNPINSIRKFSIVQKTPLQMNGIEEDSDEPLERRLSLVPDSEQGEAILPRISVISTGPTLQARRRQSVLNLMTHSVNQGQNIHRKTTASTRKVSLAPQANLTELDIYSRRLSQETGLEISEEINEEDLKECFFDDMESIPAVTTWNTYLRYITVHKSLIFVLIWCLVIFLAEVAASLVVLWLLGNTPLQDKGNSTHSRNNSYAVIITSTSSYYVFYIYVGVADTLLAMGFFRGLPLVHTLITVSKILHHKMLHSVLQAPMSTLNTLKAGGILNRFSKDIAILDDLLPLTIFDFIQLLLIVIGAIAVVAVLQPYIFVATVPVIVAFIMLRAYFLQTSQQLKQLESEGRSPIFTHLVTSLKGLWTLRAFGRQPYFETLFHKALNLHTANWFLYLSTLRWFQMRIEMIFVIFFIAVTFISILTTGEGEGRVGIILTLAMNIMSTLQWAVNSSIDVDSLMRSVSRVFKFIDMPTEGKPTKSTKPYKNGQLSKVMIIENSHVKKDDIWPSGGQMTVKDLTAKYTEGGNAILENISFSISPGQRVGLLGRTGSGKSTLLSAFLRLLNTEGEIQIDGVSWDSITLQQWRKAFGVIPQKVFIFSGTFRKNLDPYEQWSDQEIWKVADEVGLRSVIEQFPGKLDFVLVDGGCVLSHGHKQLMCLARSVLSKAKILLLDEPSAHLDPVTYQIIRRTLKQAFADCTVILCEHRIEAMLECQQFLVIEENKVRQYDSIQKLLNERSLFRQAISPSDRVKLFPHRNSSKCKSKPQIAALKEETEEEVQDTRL
Assay: Ussing chamber assay of CFTR-mediated short-circuit currents (identification of potentiator compounds)
Assay type: cell-based
Settings: potentiator incubated 18-24 hours at 37° C. in combination with 10 μM corrector, in the presence of 20% human serum, CFTR-mediated ISC
Description: Ussing chamber experiments were performed using human bronchial epithelial (HBE) cells derived from CF subjects heterozygous for F508del and a minimal function CFTR mutation (F508del/MF-HBE) and cultured as previously described (Neuberger T, Burton B, Clark H, Van Goor F; Methods Mol. Biol. 2011:741:39-54). After four days the apical media was removed, and the cells were grown at an air liquid interface for >14 days prior to use.
To isolate the CFTR-mediated short-circuit (ISC) current, F508del/MF-HBE grown on Costar® Snapwell™ cell culture inserts were mounted in an Ussing chamber and the transepithelial ISC was measured under voltage-clamp recording conditions (Vhold=0 mV) at 37° C. The basolateral solution contained (in mM) 145 NaCl, 0.83 K2HPO4, 3.3 KH2PO4, 1.2 MgCl2, 1.2 CaCl2), 10 Glucose, 10 HEPES (pH adjusted to 7.4 with NaOH) and the apical solution contained (in mM) 145 NaGluconate, 1.2 MgCl2, 1.2 CaCl2), 10 glucose, 10 HEPES (pH adjusted to 7.4 with NaOH) and 30 μM amiloride to block the epithelial sodium channel. Forskolin (20 μM) was added to the apical surface to activate CFTR, followed by apical addition of a CFTR inhibitor cocktail consisting of BPO, GlyH-101 and CFTR inhibitor 172 (each at 20 μM final assay concentration) to specifically isolate CFTR currents. The CFTR-mediated ISC (μA/cm^2) for each condition was determined from the peak forskolin response to the steady-state current following inhibition.
The activity of the CFTR potentiator compounds on the CFTR-mediated ISC was determined in Ussing chamber studies as described above. The F508del/MF-HBE cell cultures were incubated with the potentiator compounds at a range of concentrations in combination with 10 μM (14S)-8-[3-(2-{dispiro[2.0.2.1]heptan-7-yl}ethoxy)-1H-pyrazol-1-yl]-12,12-dimethyl-2λ^6-thia-3,9,11,18,23-pentaazatetracyclo[17.3.1.111,14.05,10]tetracosa-1(22),5,7,9,19(23),20-hexaene-2,2,4-trione for 18-24 hours at 37° C. and in the presence of 20% human serum. The concentration of potentiator compounds and (14S)-8-[3-(2-{dispiro[2.0.2.1]heptan-7-yl}ethoxy)-1H-pyrazol-1-yl]-12,12-dimethyl-2λ^6-thia-3,9,11,18,23-pentaazatetracyclo[17.3.1.111,14.05,10]tetracosa-1(22),5,7,9,19(23),20-hexaene-2,2,4-trione used during the 18-24 hours incubations was kept constant throughout the Ussing chamber measurement of the CFTR-mediated ISC to ensure compounds were present throughout the entire experiment. The efficacy and potency of the putative F508del potentiators was compared to that of the known potentiator, ivacaftor (N-[2,4-bis(1,1-dimethylethyl)-5-hydroxyphenyl]-1,4-dihydro-4-oxoquinoline-3-carboxamide).

Molecule	EC50 [nM]
17-amino-12-[(3- cyclobutyl-5-fluoro- phenyl)methyl]-6- hydroxy-6,15- bis(trifluoromethyl)- 8,19-dioxa-3,4,12,18- tetrazatricyclo [12.3.1.12,5] nonadeca- 1(18),2,4,14,16- pentaen-13-one [Compound 263]	< 500
17-amino-12-[(3-tert- butylphenyl)methyl]- 6-hydroxy-6,15- bis(trifluoromethyl)- 8,19-dioxa-3,4,12,18- tetrazatricyclo [12.3.1.12,5] nonadeca- 1(18),2,4,14,16- pentaen-13-one [Compound 261]	< 500
Nc1cc(C(F)(F)F)c2nc1-c1nnc(o1)[C@@](O)(C(F)(F)F)CCCCCN(CC1CCCCO1)C2=O (mixture of isomers) [Compound 130, (6R)-17-amino-6-hydroxy-12-(tetrahydropyran-2-ylmethyl)-6,15-bis (trifluoromethyl)-19-oxa-3,4,12,18-tetrazatricyclo [12.3.1.12,5] nonadeca-1(18),2,4,14,1 6-pentaen-13-one]	< 500
Nc1cc(C(F)(F)F)c2nc1-c1nnc(o1)[C@@](O)(C(F)(F)F)CCCCCN(CC1CCCOC1)C2=O (mixture of isomers) [Compound 131, (6R)-17-Amino-6-hydroxy-12-(tetrahydropyran-3-ylmethyl)-6,15-bis (trifluoromethyl)-19-oxa-3,4,12,18-tetrazatricyclo [12.3.1.12,5] nonadeca-1(18),2,4,14,1 6-pentaen-13-one]	< 500
Nc1cc(C(F)(F)F)c2nc1-c1nnc(o1)[C@@](O)(C(F)(F)F)CCCCCN(C1CCCOC1)C2=O (mixture of isomers) [Compound 133, (6R)-17-Amino-6-hydroxy-12-tetrahydropyran-3-yl-6,15-bis (trifluoromethyl)-19-oxa-3,4,12,18-tetrazatricyclo [12.3.1.12,5] nonadeca-1(18),2,4,14,1 6-pentaen-13-one]	< 500
Nc1cc(C(F)(F)F)c2nc1-c1nnc(o1)C(O)(C(F)(F)F)c1cc(ccc1F)CCCN(C1CC(F)(F)C1)C2=O (racemic) [Compound 201, 20-amino-15-(3,3-difluorocyclobutyl)-8-fluoro-6-hydroxy-6,18-bis(trifluoromethyl)-23-oxa-3,4,15,21-tetraazatetracyclo [15.3.1.12,5.17,11] tricosa 1(21),2,4,7(22),8,10, 17,19-octaen-16-one]	< 500
Nc1cc(C(F)(F)F)c2nc1-c1nnc(o1)C(O)(C(F)(F)F)CCCCCCC2 (single isomer, unassigned) [Compound 2, 17-amino-6,15-bis(trifluoromethyl)-19-oxa-3,4,18-triazatricyclo[12.3.1.12,5]nonadeca-1(18),2,4,14,16-pentaen-6-ol]	< 500
Nc1cc(C(F)(F)F)c2nc1-c1nnc(o1)C(O)(C(F)(F)F)CCCCCc1ccccc1-2 (single isomer, unassigned) [Compound 4, 21-amino-6,19-bis(trifluoromethyl)-23-oxa-3,4,22-triazatetracyclo[16.3.1.12,5.012,17]tricosa-1(22),2,4,12,14,16,18,20-octaen-6-ol]	< 500
Nc1cc(C(F)(F)F)c2nc1-c1nnc(o1)C(O)(C(F)(F)F)CCCCCc1ccccc1-2 (single isomer, unassigned) [Compound 5, 21-amino-6,19-bis(trifluoromethyl)-23-oxa-3,4,22-triazatetracyclo[16.3.1.12,5.012,17]tricosa-1(22),2,4,12,14,16,18,20-octaen-6-ol]	> 1000
Nc1cc(C(F)(F)F)c2nc1-c1nnc(o1)[C@](O)(C(F)(F)F)CCCCCCC2=O (single isomer, unassigned) [Compound 7]	> 1000
Nc1cc(C(F)(F)F)c2nc1-c1nnc(o1)C(O)(C(F)(F)F)CCCCCCC2O (single isomer, unassigned) [Compound 8, 17-amino-6,15-bis(trifluoromethyl)-19-oxa-3,4,18-triazatricyclo[12.3.1.12,5]nonadeca-1(18),2,4,14,16-pentaene-6,13-diol]	< 500
Nc1cc(C(F)(F)F)c2nc1-c1nnc(o1)C(O)(C(F)(F)F)CCCCCCC2O (single isomer, unassigned) [Compound 9, 17-amino-6,15-bis(trifluoromethyl)-19-oxa-3,4,18-triazatricyclo[12.3.1.12,5]nonadeca-1(18),2,4,14,16-pentaene-6,13-diol]	> 1000
Nc1cc(C(F)(F)F)c2nc1-c1nnc(o1)C(O)(C(F)(F)F)CCCCCCC2O (single isomer, unassigned) [Compound 10, 17-amino-6,15-bis(trifluoromethyl)-19-oxa-3,4,18-triazatricyclo[12.3.1.12,5]nonadeca-1(18),2,4,14,16-pentaene-6,13-diol]	< 500
Nc1cc(C(F)(F)F)c2nc1-c1nnc(o1)C(O)(C(F)(F)F)CCCCCCC2O (single isomer, unassigned) [Compound 11, 17-amino-6,15-bis(trifluoromethyl)-19-oxa-3,4,18-triazatricyclo[12.3.1.12,5]nonadeca-1(18),2,4,14,16-pentaene-6,13-diol]	> 1000
COC1CCCCCCC(O)(C(F)(F)F)C2=NN=C(O2)c2nc1c(C(F)(F)F)cc2N (single isomer, unassigned) [Compound 12, 17-Amino-13-methoxy-6,15-bis(trifluoromethyl)-19-oxa-3,4,18-triazatricyclo[12.3.1.12,5]nonadeca-1(18),2,4,14,16-pentaen-6-ol]	< 500
COC1CCCCCCC(O)(C(F)(F)F)C2=NN=C(O2)c2nc1c(C(F)(F)F)cc2N (single isomer, unassigned) [Compound 13, 17-amino-13-methoxy-6,15-bis(trifluoromethyl)-19-oxa-3,4,18-triazatricyclo[12.3.1.12,5]nonadeca-1(18),2,4,14,16-pentaen-6-ol]	< 500
COC1CCCCCCC(O)(C(F)(F)F)C2=NN=C(O2)c2nc1c(C(F)(F)F)cc2N (single isomer, unassigned) [Compound 14, 17-Amino-13-methoxy-6,15-bis(trifluoromethyl)-19-oxa-3,4,18-triazatricyclo[12.3.1.12,5]nonadeca-1(18),2,4,14,16-pentaen-6-ol]	< 500
COC1CCCCCCC(O)(C(F)(F)F)C2=NN=C(O2)c2nc1c(C(F)(F)F)cc2N (single isomer, unassigned) [Compound 15, 17-amino-13-methoxy-6,15-bis(trifluoromethyl)-19-oxa-3,4,18-triazatricyclo[12.3.1.12,5]nonadeca-1(18),2,4,14,16-pentaen-6-ol]	500 to 1000
CC1CCCCCCC(O)(C(F)(F)F)C2=NN=C(O2)c2nc1c(C(F)(F)F)cc2N (single isomer, unassigned) [Compound 16, 17-Amino-13-methyl-6,15-bis(trifluoromethyl)-19-oxa-3,4,18-triazatricyclo[12.3.1.12,5]nonadeca-1(18),2,4,14,16-pentaen-6-ol]	< 500
CC1CCCCCCC(O)(C(F)(F)F)C2=NN=C(O2)c2nc1c(C(F)(F)F)cc2N (single isomer, unassigned) [Compound 17, 17-amino-13-methyl-6,15-bis(trifluoromethyl)-19-oxa-3,4,18-triazatricyclo[12.3.1.12,5]nonadeca-1(18),2,4,14,16-pentaen-6-ol]	< 500
CC1CCCCCCC(O)(C(F)(F)F)C2=NN=C(O2)c2nc1c(C(F)(F)F)cc2N (single isomer, unassigned) [Compound 18, 17-amino-13-methyl-6,15-bis(trifluoromethyl)-19-oxa-3,4,18-triazatricyclo[12.3.1.12,5]nonadeca-1(18),2,4,14,16-pentaen-6-ol]	< 500
CC1CCCCCCC(O)(C(F)(F)F)C2=NN=C(O2)c2nc1c(C(F)(F)F)cc2N (single isomer, unassigned) [Compound 19, 17-amino-13-methyl-6,15-bis(trifluoromethyl)-19-oxa-3,4,18-triazatricyclo[12.3.1.12,5]nonadeca-1(18),2,4,14,16-pentaen-6-ol]	< 500
